Source: patent publication US20060194969A1, “4-Substituted benzimidazoles and their uses as inhibitors of gastric secretion” (priority 2002, published 2006)

Assays:
[1] = tested on: pentagastrin-stimulated acid secretion of the perfused rat stomach; test: Secretion-inhibiting action on the perfused rat stomach (pentagastrin-stimulated acid secretion, intraduodenal administration in vivo); settings: dose 1 μmol/kg i.d., anesthetized female CD rat; for inhibition in vivo at 1 µmol/kg: intraduodenal
Description: Testing of the Secretion-Inhibiting Action on the Perfused Rat Stomach
In Table A which follows, the influence of the compounds according to the invention on the pentagastrin-stimulated acid secretion of the perfused rat stomach after intraduodenal administration in vivo is shown.
The abdomen of anesthetized rats (CD rat, female, 200-250 g; 1.5 g/kg i.m. urethane) was opened after tracheotomy by a median upper abdominal incision and a PVC catheter was fixed transorally in the esophagus and another via the pylorus such that the ends of the tubes just projected into the gastric lumen. The catheter leading form the pylorus led outward into the right abdominal wall through a side opening.
After thorough rinsing (about 50-100 ml), warm (37° C.) physiological NaCl solution was continuously passed through the stomach (0.5 ml/min, pH 6.8-6.9; Braun-Unita I). The pH (pH meter 632, glass electrode EA 147; φ=5 mm, Metrohm) and, by titration with a freshly prepared 0.01 N NaOH solution to pH 7 (Dosimat 665 Metrohm), the secreted HCl were determined in the effluent in each case collected at an interval of 15 minutes.
The gastric secretion was stimulated by continuous infusion of 1 μg/kg (=1.65 ml/h) of i.v. pentagastrin (left femoral vein) about 30 min after the end of the operation (i.e. after determination of 2 preliminary fractions). The substances to be tested were administered intraduodenally in a 2.5 ml/kg liquid volume 60 min after the start of the continuous pentagastrin infusion.
The body temperature of the animals was kept at a constant 37.8-38° C. by infrared irradiation and heat pads (automatic, stepless control by means of a rectal temperature sensor).

SMILES | melting point | inhibition in vivo at 1 µmol/kg [1] | Inhibition of acid secretion (%) [1]
Cc1nc2c(O[C@@H]3c4ccccc4C[C@H]3O)cc(C(=O)N(C)C)cc2n1C.O=C(O)C(=O)O (relative stereo) [Example 10, 4-(trans-2,3-Dihydro-2-hydroxy-1-indenyloxy)-6-(N,N-dimethylaminocarbonyl)-1,2-dimethyl-1H-benzimidazole Oxalate] | 144 to 145 °C | > 50% | 
COCC(=O)O[C@@H]1Cc2ccccc2[C@H]1Oc1cc(C(=O)N(C)C)cc2c1nc(C)n2C (relative stereo) [Example 13] |  |  | >50%
Cc1nc2c(O[C@@H]3c4ccc(Cl)cc4C[C@H]3O)cc(C(=O)N(C)C)cc2n1C.O=C(O)C(=O)O (relative stereo) [Example 19, 4-(trans-5-Chloro-2,3-dihydro-2-hydroxy-1-indenyloxy)-6-(N,N-dimethylaminocarbonyl)-1,2-dimethyl-1H-benzimidazole Oxalate] | 158 to 159 °C | > 50% | 
Cc1nc2c(O[C@H]3c4ccccc4C[C@@H]3O)cc(C(=O)N(C)C)cc2n1C.O=C(O)C(=O)O [Example 11, 4-[(1S,2S)-2,3-Dihydro-2-hydroxy-1-indenyloxy]-6-(N,N-dimethylaminocarbonyl)-1,2-dimethyl-1H-benzimidazole Oxalate] | 126 to 127 °C | > 50% | 
CCc1cccc(C)c1CNc1cc(C(=O)NCCO)cc2c1nc(C)n2C [Example 35, 4-(2-Ethyl-6-methyl-benzylamino)-6-(2-hydroxyethyl-aminocarbonyl)-1,2-dimethyl-1H-benzimidazole] | 200 to 201 °C | > 50% | 
CCc1cccc(C)c1CNc1cc(C(=O)N2CCCC2)cc2c1nc(C)n2C [Example 40, 4-(2-Ethyl-6-methyl-benzylamino)-1,2-dimethyl-6-(pyrrolidinocarbonyl)-1H-benzimidazole] | 126 °C | > 50% | 
CCc1cccc(C)c1CNc1cc(C(=O)N2CCOCC2)cc2c1nc(C)n2C [Example 41, 4-(2-Ethyl-6-methyl-benzylamino)-1,2-dimethyl-6-(morpholinocarbonyl)-1H-benzimidazole] | 229 to 231 °C | > 50% | 
CCc1cccc(C)c1CNc1cc(C(=O)N(C)C)cc2c1nc(C)n2C [Example 44] |  |  | >50%
Cc1cccc(C)c1CNc1cc(C2=NCCN2)cc2c1nc(C)n2C [Example 72, 6-(4,5-Dihydro-1H-imidazol-2-yl)-4-(2,6-dimethyl-benzylamino)-1,2-dimethyl-1H-benzimidazole] | 273 to 274 °C |  | 
CC(=O)OCc1nc2c(NCc3c(C)cccc3C)cc(Br)cc2n1C [Example 81, 2-Acetoxymethyl-6-bromo-4-(2,6-dimethyl-benzylamino)-1-methyl-1H-benzimidazole] | 188 to 190 °C |  | 
Cc1nnc(-c2cc(NCc3c(C)cccc3C)c3nc(C)n(C)c3c2)o1 [Example 85, 4-(2,6-Dimethyl-benzylamino)-6-(5-methyl-[1,3,4]oxadiazol-2yl)-1,2-dimethyl-1H-benzimidazole] | 256 to 257 °C |  | 
CCOC(=O)c1cc(OCc2ccccc2)c2nc(C3CC3)n(C)c2c1 [Example 86, Ethyl 4-benzyloxy-2-cyclopropyl-1-methyl-1H-benzimidazole-6-carboxylate] | 120 °C |  | 

The next lines start with results.

melting point | SMILES | inhibition in vivo at 1 µmol/kg [1] | Inhibition of acid secretion (%) [1]
161 to 162 °C | CCc1cccc(C)c1COc1cc(C(=O)N(C)C)cc2c1nc(C)n2C [Example 8, 6-(N,N-Dimethylaminocarbonyl)-4-(2-ethyl-6-methyl-benzyloxy)-1,2-dimethyl-1H-benzimidazole] | > 50% | 
240 to 241 °C | CCc1cccc(C)c1CNc1cc(C(N)=O)cc2c1nc(C)n2C [Example 38, 4-(2-Ethyl-6-methyl-benzylamino)-1,2-dimethyl-1H-benzimidazole-6-carboxamide] | > 50% | 
55 to 56 °C | Cc1cccc(C)c1CNc1cc(C(=O)N(C)C)cc2c1nc(C)n2COCc1ccccc1 [Example 66, 1-Benzyloxymethyl-6-(N,N-dimethylaminocarbonyl)-4-(2,6-dimethyl-benzylamino)-2-methyl-1H-benzimidazole] |  | 
203 °C | Cc1nc2c(NCc3c(C)cccc3C)cc(C(=O)N(C)C)cc2[nH]1 [Example 67, 6-(N,N-Dimethylaminocarbonyl)-4-(2,6-dimethyl-benzylamino)-2-methyl-1H-benzimidazole] |  | 
298 °C | CNC(=O)c1cc(NCc2c(C)cccc2C)c2nc(C)[nH]c2c1 [Example 69, 4-(2,6-Dimethyl-benzylamino)-6-(N-methylaminocarbonyl)-2-methyl-1H-benzimidazole] |  | 
197 to 198 °C | Cc1cccc(CO)c1CNc1cc(C(=O)N(C)C)cc2c1nc(C)n2C [Example 70, 6-(N,N-Dimethylaminocarbonyl)-4-(2-hydroxymethyl-6-methyl-benzylamino)-1,2-dimethyl-1H-benzimidazole] |  | 
118 to 119 °C | Cc1cccc(C)c1CNc1cc(C2=NCCN2C)cc2c1nc(C)n2C [Example 73, 6-(4,5-Dihydro-1-methyl-1H-imidazol-2-yl)-4-(2,6-dimethyl-benzylamino)-1,2-dimethyl-1H-benzimidazole] |  | 
235 °C | Cc1cccc(C)c1CNc1cc(C2=NCCO2)cc2c1nc(C)n2C [Example 74, 6-(4,5-Dihydro-oxazol-2-yl)-4-(2,6-dimethyl-benzylamino)-1,2-dimethyl-1H-benzimidazole] |  | 
277 °C | Cc1cccc(C)c1CNc1cc(Br)cc2c1nc(C)n2O [Example 76, 6-Bromo-4-(2,6-dimethyl-benzylamino)-1-hydroxy-2-methyl-1H-benzimidazole] |  | 
171 to 172 °C | COn1c(C)nc2c(NCc3c(C)cccc3C)cc(Br)cc21 [Example 77, 6-Bromo-4-(2,6-dimethyl-benzylamino)-1-methoxy-2-methyl-1H-benzimidazole] |  | 
165 to 166 °C | CCOC(=O)c1cc(NCc2c(C)cccc2C)c2nc(C)n(OC)c2c1 [Example 78, Ethyl 4-(2,6-dimethyl-benzylamino)-1-methoxy-2-methyl-1H-benzimidazole-6-carboxylate] |  | 
248 to 249 °C | COn1c(C)nc2c(NCc3c(C)cccc3C)cc(C(=O)O)cc21 [Example 79, 4-(2,6-Dimethyl-benzylamino)-1-methoxy-2-methyl-1H-benzimidazole-6-carboxylic acid] |  | 
128 to 129 °C | COn1c(C)nc2c(NCc3c(C)cccc3C)cc(C(=O)N(C)C)cc21 [Example 80, 6-(N,N-Dimethylamino-carbonyl)-4-(2,6-dimethyl-benzylamino)-1-methoxy-2-methyl-1H-benzimidazole] |  | 
171 to 172 °C | Cc1cccc(C)c1CNc1cc(C(=O)N(C)C)cc2c1nc(CO)n2C [Example 82, 6-(N,N-Dimethylaminocarbonyl)-4-(2,6-dimethyl-benzylamino)-2-hydroxymethyl-1-methyl-1H-benzimidazole] |  | 
138 to 141 °C | CCc1cccc(C)c1CNc1cc(C(=O)N(C)C)cc2c1nc(CO)n2C [Example 83, 6-(N,N-Dimethylaminocarbonyl)-4-(2-ethyl-6-methyl-benzylamino)-2-hydroxymethyl-1-methyl-1H-benzimidazole] |  | 
